“Also recorded” adds a separate entry of the source.

Consider four compounds from US12214047B2, “FAP-activated proteasome inhibitors for treating solid tumors” (Trustees of Tufts College, priority 2011, dated 2025).

The subject of one data set is normal cells. The data set can be described thus: Cytotoxicity toward normal cells. It is filed as cell-based.
For the next data set, the system named is MM cell lines. Briefly: Cytotoxicity toward Multiple Myeloma cell lines. It is filed as cell-based. The conditions noted are these: various MM cell lines.
Data set [1] has as its system FAP-transfected HEK tumor xenograft. Briefly: Anticancer activity in FAP-transfected HEK tumor xenograft, 40-day study. It is filed as in vivo, mice. From the text: Having determined the levels of FAP expression in the HEK xenograft model, the anticancer activity of ARI-3996 was next evaluated in a 40-day study. […] It also suffers conformation-dependent inactivation over time.

The nature of data set [2]: Tissue distribution of Velcade, ARI-3996 and ARI-2727D in mice. The data set is classed as in vivo. The method, then:
ARI-3996 is cleaved to ARI-2727D in and around tumors, thus facilitating the buildup of ARI-2727D in tumors.
Velcade®'s high toxicity would also result from the accumulation of the drug in the organs at the expense of accumulation in the tumor. […] Thus ARI-2727D is being selectively delivered to solid tumors via FAP activation of ARI-3996.
Finally, FAP activation was verified as the mode by which ARI-2727D tumor accumulation was taking place. In FIG. 24, ARI-2727D concentrations at 1 hour post-injection were compared with ARI-2727D concentrations 1 hour after injection of the prodrug form (ARI-3996).

The test system of the next data set is FAP. The data set can be described thus: Activation of ARI-3996 to release ARI-2727 in FAP knockout versus FAP+ mice. The data set is classed as in vivo. The note with it: FAP+ mice treated with ARI-3996. On the procedure: Mouse models may over-report systemic toxicity of ARI-3996 compared with that possible in cancer patients. This was further verified by treatment of FAP knockout mice with ARI-3996. In knockout mice (FIG. 21), no activation of ARI-3996 to release ARI-2727 took place, whereas in FAP+ mice a concentration of the released warhead ARI-2727 of 150 ng/mL was reached.

Another data set has as its system solid tumors. The data set can be described thus: Cytotoxicity toward solid tumors. It is filed as cell-based.
A further data set deals with DPP9 (Homo sapiens, UniProt Q86TI2). The data set can be described thus: In vitro cleavage of fluorogenic substrate ARI-3144 (AMC fluorescence). It is filed as biochemical. The conditions noted are these: fluorescence of released AMC. From the text:
(§1) Cleavage was monitored by measuring fluorescence of the AMC leaving group (excitation, 355 nm; emission, 460 nm).
(§2) The D-alanine at P2 of the fluorogenic substrate, N-(Quinoline-4-carbonyl)-D-Ala-Pro-AMC [AMC=7-amino-4-methylcoumarin] (ARI-3144), confers selectivity for FAP so that it is cleaved to release fluorescent AMC by recombinant FAP but not by other DPP-IV-like proteases (FIG. 3). […] FAP is reportedly not expressed constitutively in healthy tissue with the exception of endometrium, although FAP proteolytic activity is detectable in plasma. […] The ability to measure FAP proteolytic activity in tumors is required to evaluate the usefulness of ARI-3996 as a chemotherapeutic agent. Hitherto, FAP activity has not been quantified in human or mouse tumors. […] We will use the assay to select a mouse tumor model for investigation of ARI-3996's activity in which the increase in tumor-associated FAP activity relative to plasma is equivalent to that in human epithelial cancer.

A further data set deals with DPPIV (Homo sapiens, UniProt P27487). The data set is described as above. It is filed as biochemical. The note with it: fluorescence of released AMC.
Source text: as §1, §2

The next data set concerns the target T1, PREP (Homo sapiens, UniProt P48147).
T1 sequence (P48147 1-710): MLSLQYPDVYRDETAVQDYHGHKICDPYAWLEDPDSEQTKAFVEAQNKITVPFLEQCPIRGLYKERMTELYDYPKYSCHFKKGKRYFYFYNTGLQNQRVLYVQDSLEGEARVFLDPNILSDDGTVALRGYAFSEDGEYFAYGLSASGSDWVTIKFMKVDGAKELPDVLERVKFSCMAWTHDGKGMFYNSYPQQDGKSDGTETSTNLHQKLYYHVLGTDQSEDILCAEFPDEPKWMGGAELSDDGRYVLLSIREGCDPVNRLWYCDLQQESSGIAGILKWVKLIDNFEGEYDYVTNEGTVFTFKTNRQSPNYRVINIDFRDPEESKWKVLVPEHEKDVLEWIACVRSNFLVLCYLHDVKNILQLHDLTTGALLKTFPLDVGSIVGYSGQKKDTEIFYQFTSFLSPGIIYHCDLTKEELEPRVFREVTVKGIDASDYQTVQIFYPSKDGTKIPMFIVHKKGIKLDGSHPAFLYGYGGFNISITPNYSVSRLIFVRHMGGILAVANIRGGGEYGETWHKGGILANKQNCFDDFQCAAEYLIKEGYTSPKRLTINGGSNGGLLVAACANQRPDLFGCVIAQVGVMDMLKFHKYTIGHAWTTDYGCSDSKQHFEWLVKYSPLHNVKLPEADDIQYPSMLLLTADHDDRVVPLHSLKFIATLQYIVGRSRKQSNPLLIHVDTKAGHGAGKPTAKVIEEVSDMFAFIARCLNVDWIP
The description is as above. The data set is classed as biochemical. The conditions noted are these: fluorescence of released AMC.
Source text: as §1, §2

The next data set has as its target T2, recombinant FAP (Homo sapiens, UniProt Q12884).
T2 sequence (Q12884 1-760): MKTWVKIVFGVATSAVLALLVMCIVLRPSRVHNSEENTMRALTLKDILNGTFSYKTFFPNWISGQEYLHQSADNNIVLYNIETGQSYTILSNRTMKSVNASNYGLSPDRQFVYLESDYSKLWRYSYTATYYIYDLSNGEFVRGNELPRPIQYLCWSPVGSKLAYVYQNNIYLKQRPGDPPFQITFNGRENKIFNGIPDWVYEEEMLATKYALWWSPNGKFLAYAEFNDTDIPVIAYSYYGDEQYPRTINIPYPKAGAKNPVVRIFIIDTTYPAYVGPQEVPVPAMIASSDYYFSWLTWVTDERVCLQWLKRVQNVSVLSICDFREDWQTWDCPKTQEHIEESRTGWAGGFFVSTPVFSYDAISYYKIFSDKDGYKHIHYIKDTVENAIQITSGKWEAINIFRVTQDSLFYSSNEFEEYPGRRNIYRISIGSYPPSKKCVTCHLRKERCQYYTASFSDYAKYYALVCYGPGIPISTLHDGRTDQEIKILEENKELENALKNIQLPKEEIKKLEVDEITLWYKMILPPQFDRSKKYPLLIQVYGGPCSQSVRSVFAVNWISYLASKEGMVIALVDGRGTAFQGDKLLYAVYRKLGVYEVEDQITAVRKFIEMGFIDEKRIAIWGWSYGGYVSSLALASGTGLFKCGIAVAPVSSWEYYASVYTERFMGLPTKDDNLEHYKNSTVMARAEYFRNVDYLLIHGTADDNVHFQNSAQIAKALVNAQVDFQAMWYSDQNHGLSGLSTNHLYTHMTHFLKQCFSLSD
The data set is described as above. The data set is classed as biochemical. The conditions noted are these: fluorescence of released AMC.
Source text: as §1, §2

The next data set has as its target DPP8 (Homo sapiens, UniProt Q6V1X1). The data set is described as above. The data set is classed as biochemical. The conditions noted are these: fluorescence of released AMC.
Source text: as §1, §2

A further data set deals with DPPII (Homo sapiens, UniProt Q9UHL4). Described as above. It is filed as biochemical. The note with it: fluorescence of released AMC.
Source text: as §2

For data set [3] the following is noted: mice bearing PC3 prostate tumors; cited from earlier work.
A short description of data set [4]: Maximum tolerated dose in mice. It is filed as in vivo.
Data set [5] has as its system HPAF-II carcinoma xenografts. The conditions noted are these: HPAF-II xenograft; ARI-3996 100 mg/kg i.p., bortezomib 1 mg/kg.
Protocol: ARI-3996 and bortezomib were administered twice weekly (day (D)1/D4 schedule), and ARI-3996 was also given from day 1 to day 5 for 5 consecutive days (QD×5 schedule).
One-way ANOVA with Dunnett's post test for test versus vehicle (P<0.0001).
ARI-3996 b.i.d. s.c. and gemcitabine once per day i.p. were administered twice weekly. Mean±SEM.
The subject of a further data set is U266 tumor xenografts. The data set can be described thus: Anticancer effects in U266 tumor-bearing mice (ELISA and bioluminescence). The data set is classed as in vivo. The conditions noted are these: ARI-3996 50 mg/kg, Velcade 0.5 mg/kg, twice a week for 2 weeks. The method, then: ARI-3996 consistently outperformed Velcade® in a mouse MM model. Mice bearing U266 tumor xenografts (2 female, 2 male) were treated with either the vehicle, ARI-3996, or Velcade® twice a week (day 1 and day 4) for 2 weeks. […] The inhibition of the tumor was evaluated using ELISA (μg/mL) and bioluminescence.

Sequence of DPP8 (Q6V1X1 whole entry, species assumed): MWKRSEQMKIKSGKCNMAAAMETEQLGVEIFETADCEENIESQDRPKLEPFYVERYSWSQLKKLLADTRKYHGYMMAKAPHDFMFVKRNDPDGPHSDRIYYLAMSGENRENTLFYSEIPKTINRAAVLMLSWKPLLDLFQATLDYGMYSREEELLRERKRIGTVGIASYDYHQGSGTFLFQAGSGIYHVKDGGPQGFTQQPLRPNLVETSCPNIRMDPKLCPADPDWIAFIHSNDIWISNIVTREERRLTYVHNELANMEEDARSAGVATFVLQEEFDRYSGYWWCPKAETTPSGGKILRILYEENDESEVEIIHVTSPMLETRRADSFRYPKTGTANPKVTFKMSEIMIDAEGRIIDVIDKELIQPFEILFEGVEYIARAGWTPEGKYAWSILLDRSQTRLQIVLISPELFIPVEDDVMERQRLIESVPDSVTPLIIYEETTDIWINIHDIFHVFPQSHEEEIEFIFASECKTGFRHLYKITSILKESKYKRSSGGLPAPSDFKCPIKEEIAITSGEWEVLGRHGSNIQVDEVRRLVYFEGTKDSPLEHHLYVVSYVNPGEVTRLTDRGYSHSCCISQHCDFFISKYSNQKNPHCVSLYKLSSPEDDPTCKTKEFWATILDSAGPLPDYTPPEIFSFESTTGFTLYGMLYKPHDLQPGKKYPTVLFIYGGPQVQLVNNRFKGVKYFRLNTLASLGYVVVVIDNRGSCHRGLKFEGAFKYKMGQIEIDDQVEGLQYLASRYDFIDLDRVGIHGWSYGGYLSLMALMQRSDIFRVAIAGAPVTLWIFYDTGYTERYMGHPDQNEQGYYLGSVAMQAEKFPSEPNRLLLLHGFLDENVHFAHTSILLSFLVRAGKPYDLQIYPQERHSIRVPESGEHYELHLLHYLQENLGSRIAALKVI
Sequence of DPPIV (P27487 whole entry, species assumed): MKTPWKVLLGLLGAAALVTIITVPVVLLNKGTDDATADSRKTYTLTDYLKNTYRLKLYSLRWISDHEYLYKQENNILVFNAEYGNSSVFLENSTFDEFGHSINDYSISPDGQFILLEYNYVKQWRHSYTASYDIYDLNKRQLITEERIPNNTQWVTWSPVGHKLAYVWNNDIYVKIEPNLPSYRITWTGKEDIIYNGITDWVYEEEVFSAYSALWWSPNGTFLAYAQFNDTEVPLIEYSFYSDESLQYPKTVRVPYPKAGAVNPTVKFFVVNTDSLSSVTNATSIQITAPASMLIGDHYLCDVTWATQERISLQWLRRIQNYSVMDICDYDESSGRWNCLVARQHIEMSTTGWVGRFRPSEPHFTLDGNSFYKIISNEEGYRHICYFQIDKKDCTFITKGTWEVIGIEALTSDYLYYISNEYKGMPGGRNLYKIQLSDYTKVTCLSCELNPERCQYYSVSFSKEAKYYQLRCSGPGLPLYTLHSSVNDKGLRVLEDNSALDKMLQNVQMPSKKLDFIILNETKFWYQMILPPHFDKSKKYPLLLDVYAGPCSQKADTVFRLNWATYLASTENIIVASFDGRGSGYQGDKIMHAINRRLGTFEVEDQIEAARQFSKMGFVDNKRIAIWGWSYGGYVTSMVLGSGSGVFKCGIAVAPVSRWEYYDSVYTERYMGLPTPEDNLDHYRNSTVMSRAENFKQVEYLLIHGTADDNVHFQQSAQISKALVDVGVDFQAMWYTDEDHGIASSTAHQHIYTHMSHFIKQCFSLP
Sequence of DPP9 (Q86TI2 whole entry, species assumed): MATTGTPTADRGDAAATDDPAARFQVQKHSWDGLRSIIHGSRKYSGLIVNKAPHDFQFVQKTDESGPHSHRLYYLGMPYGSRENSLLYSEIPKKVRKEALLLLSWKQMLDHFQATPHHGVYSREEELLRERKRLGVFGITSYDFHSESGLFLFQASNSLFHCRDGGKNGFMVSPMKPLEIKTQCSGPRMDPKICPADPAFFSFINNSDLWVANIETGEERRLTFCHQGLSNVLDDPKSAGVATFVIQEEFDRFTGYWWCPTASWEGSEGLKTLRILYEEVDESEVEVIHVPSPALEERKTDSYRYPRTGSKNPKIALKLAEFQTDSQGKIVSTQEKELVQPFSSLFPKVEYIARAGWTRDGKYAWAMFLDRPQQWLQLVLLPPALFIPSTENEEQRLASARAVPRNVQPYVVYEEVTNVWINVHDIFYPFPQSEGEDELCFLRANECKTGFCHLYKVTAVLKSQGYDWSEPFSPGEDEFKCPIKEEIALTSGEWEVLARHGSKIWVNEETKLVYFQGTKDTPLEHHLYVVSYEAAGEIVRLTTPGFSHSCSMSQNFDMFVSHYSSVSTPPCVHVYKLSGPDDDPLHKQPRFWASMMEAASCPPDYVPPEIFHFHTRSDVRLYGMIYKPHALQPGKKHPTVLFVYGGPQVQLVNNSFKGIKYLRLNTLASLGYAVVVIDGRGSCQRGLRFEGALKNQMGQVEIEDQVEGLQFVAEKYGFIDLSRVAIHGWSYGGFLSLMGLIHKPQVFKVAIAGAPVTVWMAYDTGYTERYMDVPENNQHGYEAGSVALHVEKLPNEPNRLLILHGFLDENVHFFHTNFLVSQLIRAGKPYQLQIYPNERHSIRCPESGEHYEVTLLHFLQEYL

Regarding `CC(C)CC(NC(=O)C(N)Cc1cccc2ccccc12)B(O)O` (centres unmarked) [ARI-2727D, Ala(1-Nal)-boroLeu], the Cytotoxicity result in the data set with normal cells is reported as “slightly lower toxicity”; with MM cell lines, “extremely high potency”; with solid tumors, “much lower”. The Tumor growth inhibition result in data set [1] is on record as “potent tumor inhibition”. For the same compound, the “Tissue distribution of ARI-2727D after injection of prodrug” value in [2] (1 hour after injection of ARI-3996) is “highest concentration of ARI-2727D was found in the tumor”. For the same compound, the “Tissue distribution of ARI-2727D after direct injection” value in data set [2] (1 hour post-injection of ARI-2727D) was “highest concentration of the drug accumulating in the kidneys and lung”. In addition, the “Tissue distribution of ARI-2727D formed from ARI-3996” value in data set [2] (mice given ARI-3996) is on record as “much higher relative concentrations in the tumor”. Moreover, in the data set with FAP, the “Concentration of the released warhead ARI-2727” value is 150 ng/mL.
`Cc1cc(=O)oc2cc(NC(=O)[C@@H]3CCCN3C(=O)[C@@H](C)NC(=O)c3ccnc4ccccc34)ccc12` [ARI-3144, N-(Quinoline-4-carbonyl)-D-Ala-Pro-AMC]: the “Cleavage by DPP9” value at DPP9 is “no cleavage”. Moreover, the “Cleavage by DPPIV” value at DPPIV is on record as “no cleavage”. Further, at PREP, the “Cleavage by PREP” value is recorded as “no cleavage”. Also, on recombinant FAP, the “Cleavage by FAP” value is on record as “excellent substrate for FAP”. Moreover, the “Cleavage by DPP8” value at DPP8 is on record as “no cleavage”. The “Cleavage by DPPII” value at DPPII is “no cleavage”.
Turning to `CC(C)C[C@H](NC(=O)[C@H](Cc1ccccc1)NC(=O)c1cnccn1)B(O)O` [^14C-bortezomib], the “Healthy organ exposure relative to tumor exposure” value in data set [3] was not above 9 fold.
For `CC(C)C[C@H](NC(=O)[C@H](Cc1ccccc1)NC(=O)c1cnccn1)B(O)O` [bortezomib, reference compound], the values for the Cytotoxicity entry in the data set with normal cells, with MM cell lines and in the data set on solid tumors were “slightly lower toxicity”, “extremely high potency” and “much lower”, respectively. Besides, the “MTD (maximum tolerated dose)” value in [4] amounted to 1 mg/kg. For the same compound, in [1], the Tumor growth inhibition entry was “hardly slowed the growth of the tumors”. Moreover, the “Tissue distribution of the administered drug” value in data set [2] (mouse, in vivo) was “much higher concentrations in the heart, lung, kidney, liver, spleen, and lung than in the tumor”. The “Antitumor effect at MTD” value in data set [5] is “refractory; also recorded: lacks significant antitumor activity”. This compound came in with a Deaths / survival in the data set with U266 tumor xenografts of 1.
